Positions count from the first letter of the chain named.
Assays:
[1] = biological target: T1, TplEi (Pseudomonas aeruginosa, UniProt Q9I3K3); test: Isothermal titration calorimetry (ITC) of TplE peptides with wild type TplEi; assay type: binding; conditions: for Kd: 25°C, 20 mM Tris-HCl pH 8.0, 100 mM NaCl, A peptides (WT) and its mutants, Figure 3D,E; for effect of the mutation on “L” peptide binding to TplEi: result in words, compared to WT peptide
T1 sequence (Q9I3K3 1-380): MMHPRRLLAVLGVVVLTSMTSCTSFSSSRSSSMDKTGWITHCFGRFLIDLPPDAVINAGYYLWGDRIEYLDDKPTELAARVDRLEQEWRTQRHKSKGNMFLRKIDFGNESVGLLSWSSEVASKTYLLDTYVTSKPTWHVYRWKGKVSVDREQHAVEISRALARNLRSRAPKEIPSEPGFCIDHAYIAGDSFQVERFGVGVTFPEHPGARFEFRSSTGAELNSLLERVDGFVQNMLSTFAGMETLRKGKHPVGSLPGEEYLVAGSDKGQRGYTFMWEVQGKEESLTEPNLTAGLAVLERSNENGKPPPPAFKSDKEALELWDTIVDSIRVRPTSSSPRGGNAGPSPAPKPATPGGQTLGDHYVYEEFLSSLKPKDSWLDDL
Method: (§1) Isothermal titration calorimetry (ITC) assay was performed with a MicroCalTM iTC200 calorimeter (MicroCal, USA) at 25°C; both the protein and peptides were dissolved with the same buffer (20 mM Tris-HCl, pH = 8.0, 100 mM NaCl). The concentration of TplEi was between 0.03 and 0.04 mM. The concentrations of wild type peptides and mutants were between 1 and 2 mM. Titration was scheduled with 18 consecutive injections of 2 μl of peptide with a 120 s interval between injections, using a stirring rate of 600 rpm. Data acquisition and analysis were performed using MicroCal Origin software (version 7.0).

[2] = system: E. coli BL21 (DE3); test: Cell-toxicity assay, spot growth on LB agar; assay type: cell-based, Escherichia coli; conditions: 0.045 mM IPTG, 24 h; for decrease of growth inhibition on expression of mutated “L” peptide: E. coli BL21 (DE3) expressing TplE-TplEi and mutated peptide, compared with “L” peptide
Method: Cell-toxicity assay was carried as previously described with minor modification (Jiang et al., [2016]). […] A 2 μl bacterial dilution was spotted onto LB agar plate containing 0.045 mM IPTG. Images were taken after 24 h growth.
(A) Diagrams of TplE, TplE-TplEi and “L” peptide expressing constructs. Expression of vector sequence and “L” peptide mutant with the PelB signal peptide was used as a control. […] A 10-fold serial dilution of overnight culture was spotted on LB agar plates from left to right. The experiments were performed at least 3 times.

[3] = biological target: T2, TplEi E219A mutant (Pseudomonas aeruginosa, UniProt Q9I3K3, E219A); test: ITC of the “L” peptide with TplEi mutant E219A; assay type: binding
T2 sequence (Q9I3K3 1-380 E219A): T1 sequence (Q9I3K3 1-380) with E219A
Method: as §1
(§2) To further elucidate the mechanism underlying the “L” peptide binding, we mutated several key residues of TplEi interacting with the “L” peptide, and measured the binding affinity of the “L” peptide to these TplEi mutants using ITC. The side chain of K100 of the “L” peptide forms four hydrogen bonds with TplEi, among which only one involves side chain interaction with S215 of TplEi, whereas the other three involve backbone atoms. […] Similarly, we prepared TplEi mutants E219A and R266A, respectively. E219 forms a hydrogen bond with backbone NH group of K100 of the “L” peptide, and R266 forms two hydrogen bonds with the carbonyl group of W96 of the peptide (Figure 3A).

[4] = biological target: T3, TplEi S215A mutant (Pseudomonas aeruginosa, UniProt Q9I3K3, S215A); test: ITC of the “L” peptide with TplEi mutant S215A; assay type: binding
T3 sequence (Q9I3K3 1-380 S215A): T1 sequence (Q9I3K3 1-380) with S215A
Method: as §1, §2

[5] = biological target: T4, TplEi R266A mutant (Pseudomonas aeruginosa, UniProt Q9I3K3, R226A, form not given); test: ITC of the “L” peptide with TplEi mutant R266A; assay type: binding; conditions: TplEi R266A vs wild type TplEi
T4 sequence (Q9I3K3 1-380 R226A): T1 sequence (Q9I3K3 1-380) with R226A
Method: as §1, §2

[6] = biological target: T5, TplEi R266A mutant (Pseudomonas aeruginosa, UniProt Q9I3K3); test: ITC of the “L” peptide with TplEi mutant R266A; assay type: binding; conditions: 25°C, TplEi R266A, Figure S3
T5 sequence (Q9I3K3 1-380 R226A): T1 sequence (Q9I3K3 1-380) with R226A
Method: as §1, §2

Substance | Kd [1] [µM] | effect of the mutation on “L” peptide binding to TplEi [1] | further results
Ac-DDLFASAGALWTWAWRGPKARQELLKAEQVEVDD-NH2 [I88A] | 4.8 | – | –
Ac-DDLFASIGAAWTWAWRGPKARQELLKAEQVEVDD-NH2 [L91A] | 3.7 | – | –
Ac-DDLFASIGALATWAWRGPKARQELLKAEQVEVDD-NH2 [W92A] | 50 | – | decrease of growth inhibition on expression of mutated “L” peptide [2]: moderate decreased growth inhibition
Ac-DDLFASIGALWTWAARGPKARQELLKAEQVEVDD-NH2 [W96A] | 0.031 | increased binding affinity | –
Ac-DDLFASIGALWTWAWRAPKARQELLKAEQVEVDD-NH2 [G98A] | 1.31 | – | –
Ac-DDLFASIGALWTWAWRGAKARQELLKAEQVEVDD-NH2 [P99A] | 0.057 | increased binding affinity | –
Ac-DDLFASIGALWTWAWRGPKARQELLKAEQVEVDD-NH2 [“L” peptide] | – | – | growth inhibition on expression of the peptide ([2]; E. coli BL21 (DE3) expressing periplasmic-targeted TplE-TplEi and peptide, 10-fold serial dilutions, at least 3 experiments): significant TplE-dependent growth inhibition; Kd ([3]; 25°C, TplEi E219A, Figure S3): 35.5 µM; decreased binding affinity ([3]; TplEi E219A vs wild type TplEi): 284 folds; Kd ([4]; 25°C, TplEi S215A, Figure S3): 7.8 µM; reduced binding affinity comparing to wild type TplEi ([4]; TplEi S215A vs wild type TplEi): ~62 folds; decreased binding affinity [5]: 375 folds; Kd [6]: 46.9 µM
DDLFASIGALWTWAWRGPEARQELLKAEQVEVDD [K100E] | – | completely abolished | decrease of growth inhibition on expression of mutated “L” peptide [2]: strong

— paper PMC5611513, “Structure-Based Prototype Peptides Targeting the Pseudomonas aeruginosa Type VI Secretion System Effector as a Novel Antibacterial Strategy” (Frontiers in Cellular and Infection Microbiology, 2017)
